Measurements as given in patent US6689806B1, “Indolinone compounds as kinase inhibitors” (Sugen, Inc., priority 1999, dated 2004).
pIC50: −log10 of the molar value. Where two headings read alike, the source gives them in different places.

How the values were obtained:
PDGFR = PDGFR (Homo sapiens, UniProt P09619); test: PDGF-induced BrdU incorporation assay; type: cell-based; set-up: expressed in transfected cells; host or cells: 3T3; conditions: 3T3 cells expressing human PDGF-R, PDGF 3.8 nM
Procedure: The cellular/biologic assays described herein measure the amount of DNA made in response to activation of a test kinase, which is a general measure of a proliferative response. The general procedure for this assay is as follows: a compound is introduced to cells expressing the test kinase, either naturally or recombinantly, for some period of time after which, if the test kinase is a receptor, a ligand known to activate the receptor is added. After incubation at least overnight, a DNA labeling reagent such as Bromodeoxy-uridine (BrdU) or 3H-thymidine is added. The amount of labeled DNA is detected with either an anti-BrdU antibody or by measuring radioactivity and is compared to control cells not contacted with a test compound.
PDGF-Induced BrdU Incorporation Assay
(8) 3T3 cell line genetically engineered to express human PDGF-R.
(1) Cells are seeded at 8000 cells/well in DMEM, 10% CS, 2 mM Gln in a 96 well plate. Cells are incubated overnight at 37° C. in 5% CO2.
(2) After 24 hours, the cells are washed with PBS, and then are serum starved in serum free medium (0% CS DMEM with 0.1% BSA) for 24 hours.
(3) On day 3, ligand (PDGF, 3.8 nM, prepared in DMEM with 0.1% BSA) and test compounds are added to the cells simultaneously. The negative control wells receive serum free DMEM with 0.1% BSA only; the positive control cells receive the ligand (PDGF) but no test compound. Test compounds are prepared in serum free DMEM with ligand in a 96 well plate, and serially diluted for 7 test concentrations.
(4) After 20 hours of ligand activation, diluted BrdU labeling reagent (1: 100 in DMEM, 0.1% BSA) is added and the cells are incubated with BrdU (final concentration=10 μM) for 1.5 hours.
(10) The absorbance of the samples are measured at 410 nm (in “dual wavelength” mode with a filter reading at 490 nm, as a reference wavelength) on a Dynatech ELISA plate reader.

Her2 = molecular target: T1, Her2 (Homo sapiens, UniProt P04626); test: HER-2 ELISA: EGF receptor-HER2 chimeric receptor assay in whole cells (HER2 kinase); type: cell-based; conditions: NIH3T3 cells with EGFR/HER2 chimeric receptor, phosphotyrosine ELISA
T1 construct: fused on or other part: P00533 (Epidermal growth factor receptor)
Procedure, shortened: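 NIH3T3 cells expressing an EGFR extracellular/HER2 kinase-domain chimera, serum-reduced (0.5%), pretreated 2 h with compound (1% DMSO final), then stimulated 5 min with 100 nM EGF at room temperature. Lysate phosphotyrosine quantified by anti-pTyr ELISA, OD 410 nm; % inhibition after negative-control subtraction.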

EGFR = EGFR (Homo sapiens, UniProt P00533); test: Biochemical EGFR assay (ELISA); set-up: A431 cell lysate; endogenous in cells; host or cells: A431; conditions: read-out: EGFr biochem IC50
Procedure, shortened: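 EGFR is captured from cell lysate onto SUMO1-coated plates and incubated with compound diluted in TBS. The kinase reaction is stopped after 5 min with EDTA. Substrate phosphotyrosine is detected with anti-phosphotyrosine and peroxidase-linked secondary antibody, then ABTS/H2O2 read at 410 nm (reference 630 nm).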

[1] = Table 5, read-out: BrdU DNA syn. PDFGr IC50
[2] = Table 5, in vitro kinase activity
[3] = Table 7, read-out: BrdU DNA syn. PDGFr IC50
[4] = Table 7, in vitro kinase activity

T1 sequence (P04626 676-1255 limits assumed): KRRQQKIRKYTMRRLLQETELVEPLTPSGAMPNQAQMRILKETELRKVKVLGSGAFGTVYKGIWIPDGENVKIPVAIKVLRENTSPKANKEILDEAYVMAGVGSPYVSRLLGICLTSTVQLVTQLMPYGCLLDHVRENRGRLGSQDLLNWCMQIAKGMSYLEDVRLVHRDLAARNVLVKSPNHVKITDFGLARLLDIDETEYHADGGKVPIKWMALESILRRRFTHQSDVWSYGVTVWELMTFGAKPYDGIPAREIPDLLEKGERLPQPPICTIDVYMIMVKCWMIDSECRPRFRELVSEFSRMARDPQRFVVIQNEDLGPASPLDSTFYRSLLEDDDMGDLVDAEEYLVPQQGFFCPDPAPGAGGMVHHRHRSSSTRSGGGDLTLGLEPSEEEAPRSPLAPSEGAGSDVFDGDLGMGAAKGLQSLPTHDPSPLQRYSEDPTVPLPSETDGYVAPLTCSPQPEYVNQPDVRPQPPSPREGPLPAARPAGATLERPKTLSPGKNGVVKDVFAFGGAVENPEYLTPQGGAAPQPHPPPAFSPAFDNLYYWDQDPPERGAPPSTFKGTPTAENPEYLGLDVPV
Sequence of PDGFR (P09619 33-1106): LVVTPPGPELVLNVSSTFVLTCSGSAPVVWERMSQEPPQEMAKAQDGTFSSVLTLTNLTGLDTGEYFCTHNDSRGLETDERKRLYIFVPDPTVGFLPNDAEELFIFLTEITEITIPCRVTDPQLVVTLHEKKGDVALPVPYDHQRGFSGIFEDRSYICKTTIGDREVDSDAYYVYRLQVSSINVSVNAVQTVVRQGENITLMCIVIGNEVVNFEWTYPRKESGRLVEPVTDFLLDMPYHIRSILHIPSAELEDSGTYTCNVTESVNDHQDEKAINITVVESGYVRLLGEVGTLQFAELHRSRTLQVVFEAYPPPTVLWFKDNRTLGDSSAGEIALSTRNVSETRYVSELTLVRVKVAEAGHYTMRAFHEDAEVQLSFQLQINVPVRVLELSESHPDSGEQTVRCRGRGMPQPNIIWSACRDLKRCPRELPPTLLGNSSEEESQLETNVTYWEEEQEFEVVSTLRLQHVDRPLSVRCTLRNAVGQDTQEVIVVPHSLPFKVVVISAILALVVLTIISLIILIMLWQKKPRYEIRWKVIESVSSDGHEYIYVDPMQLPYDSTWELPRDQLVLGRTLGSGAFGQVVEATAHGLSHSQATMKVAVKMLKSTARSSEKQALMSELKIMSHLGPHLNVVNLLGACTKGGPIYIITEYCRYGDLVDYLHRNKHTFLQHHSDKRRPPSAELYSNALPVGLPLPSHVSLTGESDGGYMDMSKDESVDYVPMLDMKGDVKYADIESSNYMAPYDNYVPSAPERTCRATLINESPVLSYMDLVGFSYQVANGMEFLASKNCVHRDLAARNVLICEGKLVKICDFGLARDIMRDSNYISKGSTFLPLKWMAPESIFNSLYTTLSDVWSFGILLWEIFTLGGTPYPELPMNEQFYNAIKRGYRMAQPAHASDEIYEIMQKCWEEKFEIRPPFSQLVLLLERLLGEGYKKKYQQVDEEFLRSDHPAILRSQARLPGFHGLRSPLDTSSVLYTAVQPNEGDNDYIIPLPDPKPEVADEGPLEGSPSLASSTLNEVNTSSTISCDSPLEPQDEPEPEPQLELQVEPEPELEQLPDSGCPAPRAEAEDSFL
Sequence of EGFR (P00533 25-1210): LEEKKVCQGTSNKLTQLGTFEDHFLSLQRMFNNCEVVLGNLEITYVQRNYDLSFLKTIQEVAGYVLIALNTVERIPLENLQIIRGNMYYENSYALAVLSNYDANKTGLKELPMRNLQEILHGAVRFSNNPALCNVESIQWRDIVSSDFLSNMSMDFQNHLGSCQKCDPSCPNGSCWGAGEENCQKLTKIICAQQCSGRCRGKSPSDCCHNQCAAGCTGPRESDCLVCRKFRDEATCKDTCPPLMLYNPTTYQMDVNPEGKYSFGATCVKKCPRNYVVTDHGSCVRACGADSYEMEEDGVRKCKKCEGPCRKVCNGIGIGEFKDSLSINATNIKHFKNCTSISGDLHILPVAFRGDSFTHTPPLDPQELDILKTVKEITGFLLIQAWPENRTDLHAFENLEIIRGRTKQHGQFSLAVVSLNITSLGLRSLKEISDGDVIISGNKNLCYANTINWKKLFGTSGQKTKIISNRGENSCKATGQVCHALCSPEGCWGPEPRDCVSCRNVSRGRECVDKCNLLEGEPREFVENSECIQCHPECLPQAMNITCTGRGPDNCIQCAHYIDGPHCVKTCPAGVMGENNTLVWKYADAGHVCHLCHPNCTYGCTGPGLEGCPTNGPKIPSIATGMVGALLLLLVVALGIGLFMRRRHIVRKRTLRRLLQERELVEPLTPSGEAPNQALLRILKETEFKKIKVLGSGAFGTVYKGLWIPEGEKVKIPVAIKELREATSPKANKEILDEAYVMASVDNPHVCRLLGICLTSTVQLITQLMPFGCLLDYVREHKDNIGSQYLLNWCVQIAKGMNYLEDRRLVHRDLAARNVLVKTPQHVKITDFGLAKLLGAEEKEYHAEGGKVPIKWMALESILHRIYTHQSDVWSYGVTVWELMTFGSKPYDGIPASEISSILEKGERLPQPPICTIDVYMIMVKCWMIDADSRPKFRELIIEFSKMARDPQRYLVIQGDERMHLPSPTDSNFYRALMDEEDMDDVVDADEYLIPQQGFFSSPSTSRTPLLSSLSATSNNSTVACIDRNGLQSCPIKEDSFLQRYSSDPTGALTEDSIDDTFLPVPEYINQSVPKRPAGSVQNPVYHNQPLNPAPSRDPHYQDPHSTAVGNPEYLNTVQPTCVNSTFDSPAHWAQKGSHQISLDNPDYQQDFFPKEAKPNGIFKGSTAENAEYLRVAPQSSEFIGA

Row | pIC50 (PDGFR; [1]) | pIC50 (Her2; Table 5) | pIC50 (EGFR; [2]) | pIC50 (PDGFR; [3]) | pIC50 (Her2; Table 7) | pIC50 (EGFR; [4]) | SMILES
1 | 4.49 | 4.79 | < 4.00 |  |  |  | COc1ccc(CC2C(=O)Nc3ccc(F)cc32)cc1C1CCCC1 (stereo not drawn) [AAI-5, 3-(3-Cyclopentyl-4-methoxybenzyl)-5-fluoro-1,3-dihydroindol-2-one]
2 | 4.51 | < 4.00 | < 4.00 |  |  |  | CC(=O)Nc1ccc2c(c1)NC(=O)C2Cc1ccc(OCCN2CCOCC2)c(C2CCCCC2)c1 (stereo not drawn) [AAI-7, N-{3-[3-Cyclohexyl-4-(2-morpholin-4-ylethoxy)-benzyl]-2-oxo-2,3-dihydro-1H-indol-6-yl}-acetamide]
3 | 5.92 | 4.28 | 4.31 |  |  |  | COc1cccc(-c2ccc3c(c2)NC(=O)C3Cc2[nH]c(C)c(CCCN(C)C)c2C)c1 (stereo not drawn) [AAI-21, 3-[4-(3-Dimethylaminopropyl)-3,5-dimethyl-1H-pyrrol-2-ylmethyl]-6-(3-methoxyphenyl)-1,3-dihydroindol-2-one]
4 | 6.46 | 4.27 | < 4.00 |  |  |  | Cc1[nH]c(CC2C(=O)Nc3ccc(Cl)cc32)c(C)c1CCCN(C)C (stereo not drawn) [AAI-23, 5-Chloro-3-[4-(3-dimethylaminopropyl)-3,5-dimethyl-1H-pyrrol-2-ylmethyl]-1,3-dihydroindol-2-one]
5 |  |  |  | 4.43 | 4.74 | < 4.00 | CC(C)c1ccccc1OCCc1cccc2c1CC(=O)N2 [IN-002, 4-[2-(2-Isopropyl-phenoxy)-ethyl]-1,3-dihydro-indol-2-one]
6 | < 4.30 | < 4.00 | < 4.00 |  |  |  | COc1ccc(CC2C(=O)Nc3cc(-c4ccccc4)ccc32)c(O)c1 (stereo not drawn) [AAI-25, 3-(2-Hydroxy-4-methoxybenzyl)-6-phenyl-1,3-dihydroindol-2-one]
7 |  |  |  | 5.34 | 4.97 | < 4.00 | Cc1cccc(/C=C2\C(=O)Nc3cccc(CCO)c32)n1 [IN-006]
8 |  |  |  | 4.30 | < 4.00 | < 4.00 | Cc1[nH]c(/C=C2\C(=O)Nc3cccc(CCOc4ccc(C(C)C)cc4)c32)c(C)c1CCC(=O)O [IN-024, 3-(5-{4-[2-(4-Isopropyl-phenoxy)-ethyl]-2-oxo-1,2-dihydro-indol-3-ylidenemethyl}-2,4-dimethyl-1H-pyrro-3-yl)-propionic acid]
9 | < 4.30 | < 4.00 | < 4.00 |  |  |  | COc1ccc(CC2C(=O)Nc3ccc(CCN4CCOCC4)cc32)cc1-c1ccsc1 (stereo not drawn) [AAI-8, 3-(4-Methoxy-3-thiophen-3-ylbenzyl)-5-(2-morpholin-4-ylethyl)-1,3-dihydroindol-2-one]
10 | < 4.30 | < 4.00 | < 4.00 |  |  |  | Cc1cccc2c1C(Cc1ccc3[nH]ccc3c1)C(=O)N2 (stereo not drawn) [AAI-16, 3-(1H-Indol-5-ylmethyl)-4-methyl-1,3-dihydroindol-2-one]
11 | < 4.30 | < 4.00 | < 4.00 |  |  |  | O=C1Nc2ccccc2C1Cc1ccc2[nH]ccc2c1 (stereo not drawn) [AAI-17, 3-(1H-Indol-5-ylmethyl)-1,3-dihydroindol-2-one]
12 | < 4.30 | 4.65 | < 4.00 |  |  |  | COc1c(C(C)C)cc(CC2C(=O)Nc3ccccc32)cc1C(C)C (stereo not drawn) [AAI-10, 3-(3,5-Diisopropyl-4-methoxybenzyl)-1,3-dihydroindol-2-one]
13 |  |  |  | 4.45 | 4.78 | < 4.00 | CC(C)c1cccc(OCCc2cccc3c2CC(=O)N3)c1 [IN-001, 4-[2-(3-Isopropyl-phenoxy)-ethyl]-1,3-dihydro-indol-2-one]
14 |  |  |  | 5.77 | 4.89 | < 4.00 | O=C1Nc2cccc(CCO)c2/C1=C/c1ccccn1 [IN-005, 4-(2-Hydroxy-ethyl)-3-pyridin-2-ylmethylene-1,3-dihydro-indol-2-one]
15 | < 4.30 | < 4.00 | < 4.00 |  |  |  | COc1cccc(-c2ccc3c(c2)NC(=O)C3Cc2ccccc2O)c1 (stereo not drawn) [AAI-13, 3-(2-Hydroxybenzyl)-6-(3-methoxyphenyl)-1,3-dihydroindol-2-one]
16 |  |  |  | 5.26 | 5.07 | < 4.00 | COc1ccc(/C=C2\C(=O)Nc3cccc(CCO)c32)cc1-c1cccs1 [IN-008, 4-(2-Hydroxy-ethyl)-3-(4-methoxy-3-thiophen-2-yl-benzylidene)-1,3-dihydro-indol-2-one]
17 |  |  |  | 5.48 | 4.97 | < 4.00 | O=C1Nc2cccc(CCO)c2/C1=C\c1ccc(Br)cc1 [IN-004, 3-(4-Bromo-benzylidene)-4-(2-hydroxy-ethyl)-1,3-dihydro-indol-2-one]
18 | < 4.30 | < 4.00 | < 4.00 |  |  |  | Cc1cccc(CC2C(=O)Nc3cccc(CCO)c32)n1 (stereo not drawn) [AAI-27, 4-(2-Hydroxyethyl)-3-(6-methylpyridin-2-ylmethyl)-1,3-dihydroindol-2-one]
19 | < 4.30 | < 4.00 | < 4.00 |  |  |  | O=C1Nc2ccc(F)cc2C1Cc1ccc(O)c(C2CCCC2)c1 (stereo not drawn) [AAI-11, 3-(3-Cyclopentyl-4-hydroxybenzyl)-5-fluoro-1,3-dihydroindol-2-one]
20 |  |  |  | < 4.30 | < 4.00 | < 4.00 | Cc1ccc(O)c(C=C2C(=O)Nc3cccc(CCO)c32)n1 (racemic) [IN-022, 4-(2-Hydroxy-ethyl)-3-(3-hydroxy-6-methyl-pyridin-2-ylmethylene)-1,3-dihydro-indol-2-one]
21 |  |  |  | 4.66 | 4.81 | < 4.00 | O=C1Cc2c(CCOc3cccc(-c4ccccc4)c3)cccc2N1 [IN-003, 4-[2-(Biphenyl-3-yloxy)-ethyl]-1,3-dihydro-indol-2-one]
22 | < 4.30 | < 4.00 | < 4.00 |  |  |  | COc1ccc(CC2C(=O)Nc3cc(NC(C)=O)ccc32)cc1-c1cccs1 (stereo not drawn) [AAI-6, N-[3-(4-Methoxy-3-thiophen-2-ylbenzyl)-2-oxo-2,3-dihydro-1H-indol-6-yl]-acetamide]
23 |  |  |  | 4.63 | < 4.00 | < 4.00 | Cc1[nH]c(/C=C2\C(=O)Nc3cccc(CCOc4cccc(C(C)C)c4)c32)c(C)c1CCCN(C)C [IN-023]
24 | < 4.30 | 4.58 | < 4.00 |  |  |  | O=C1Nc2cc(-c3ccccc3)ccc2C1Cc1cccc(F)c1O (stereo not drawn) [AAI-24, 3-(3-Fluoro-2-hydroxybenzyl)-6-phenyl-1,3-dihydroindol-2-one]
25 | 5.41 | 4.55 | < 4.00 |  |  |  | Cc1[nH]c(CC2C(=O)Nc3ccccc32)c(C)c1CCCN(C)C (stereo not drawn) [AAI-18, 3-[4-(3-Dimethylaminopropyl)-3,5-dimethyl-1H-pyrrol-2-ylmethyl]-1,3-dihydroindol-2-one]
26 | 5.06 | 4.68 | < 4.00 |  |  |  | COc1ccccc1-c1ccc2c(c1)NC(=O)C2Cc1[nH]c(C)c(CCCN(C)C)c1C (stereo not drawn) [AAI-20, 3-[4-(3-Dimethylamino-propyl)-3,5-dimethyl-1H-pyrrol-2-ylmethyl]-6-(2-methoxy-phenyl)-1,3-dihydro-indol-2-one]
27 | 5.94 | 4.67 | < 4.00 |  |  |  | COc1ccc(-c2ccc3c(c2)NC(=O)C3Cc2[nH]c(C)c(CCCN(C)C)c2C)cc1 (stereo not drawn) [AAI-22, 3-[4-(3-Dimethylaminopropyl)-3,5-dimethyl-1H-pyrrol-2-ylmethyl]-6-(4-methoxyphenyl)-1,3-dihydroindol-2-one]
